# Article PMC7265429, “Characterization of a new small-molecule inhibitor of HDAC6 in glioblastoma” (Cell Death & Disease, 2020)
# System: GNS166 cells
# Assay: Microarray whole-transcriptome gene expression analysis
# Assay type: cell-based, human
# Conditions: 5 µM SAHA vs DMSO
# Method: Whole-transcriptome analysis was performed from 300 ng of RNA using HuGene-2_0-st-v1 expression array (Affymetrix), which covers 48,226 transcripts. Raw data were first checked for quality purposes through the Affymetrix® Expression Console™ Software v1.4.1 and TAC software v4.0. Then, data were normalized using the Robust Multi-array Average (RMA) and analyzed by Limma tool. Probesets with FDR-corrected p-values smaller than 0.05 were selected. Functional enrichment on Gene Ontology (GO) biological processes was performed on a smaller subset of the differentially expressed genes (corrected p-value < 0.001) by means of Broad Institute GSEA. […] The data that support this study have been deposited in NCBI´s Gene Expression Omnibus and are accessible through GEO series accession number GSE143887.
smiles,measurement,setting,value
"O=C(CCCCCCC(=O)Nc1ccccc1)NO [SAHA, Suberoylanilide hydroxamic acid]","logFC, unannotated transcript",transcript 23067838,2.48
same,"logFC, unannotated transcript",transcript 23070274,1.496
same,"logFC, unannotated transcript",transcript 23074046,2.262
same,"logFC, unannotated transcript",transcript 23076255,1.316
same,"logFC, unannotated transcript",transcript 23076621,1.363
same,logFC CLCN4,transcript TC0X00006593.hg.1,1.5774
same,logFC GRPR,transcript TC0X00006686.hg.1,2.105
same,logFC CNKSR2,transcript TC0X00006758.hg.1,1.439
same,logFC TCEAL2,transcript TC0X00007965.hg.1,1.805
same,logFC CXorf57,transcript TC0X00008052.hg.1,2.567
same,logFC RNF128,transcript TC0X00008054.hg.1,2.588
same,logFC TBC1D8B,transcript TC0X00008055.hg.1,1.963
same,logFC BCORL1,transcript TC0X00008394.hg.1,1.89
same,logFC SPANXB1,transcript TC0X00008599.hg.1,3.183
same,logFC SPANXA2,transcript TC0X00008608.hg.1,1.528
same,logFC GABRQ,transcript TC0X00008747.hg.1,2.318
same,logFC SPRY3,transcript TC0X00008881.hg.1,1.925
same,logFC ANOS1,transcript TC0X00009025.hg.1,2.202
same,logFC TMEM47,transcript TC0X00009356.hg.1,2.2
same,logFC SYN1,transcript TC0X00009576.hg.1,1.838
same,logFC SLC7A3,transcript TC0X00009972.hg.1,2.306
same,logFC PCDH19,transcript TC0X00010326.hg.1,2.715
same,logFC GPC3,transcript TC0X00010851.hg.1,3.405
same,logFC SPANXC,transcript TC0X00010990.hg.1,2.79
same,logFC TSPAN7,transcript TC0X00011279.hg.1,3.632
same,logFC SPANXD,transcript TC0X00011403.hg.1,2.719
same,logFC SPRY3,transcript TC0Y00006855.hg.1,1.925
same,logFC AZIN2,transcript TC0100007705.hg.1,2.1884
same,logFC SGIP1,transcript TC0100008631.hg.1,2.667
same,logFC WDR63,transcript TC0100008897.hg.1,2.0565
same,logFC PLPPR4,transcript TC0100009181.hg.1,3.131
same,logFC RIIAD1,transcript TC0100009969.hg.1,1.761
same,logFC RGS4,transcript TC0100010393.hg.1,2.615
same,logFC RGL1,transcript TC0100010874.hg.1,1.6746
same,logFC HMCN1,transcript TC0100010921.hg.1,2.357
same,logFC PLA2G4A,transcript TC0100010939.hg.1,2.146
same,logFC NFASC,transcript TC0100011316.hg.1,2.226
same,logFC SYT14,transcript TC0100011463.hg.1,1.552
same,logFC PADI2,transcript TC0100013076.hg.1,2.104
same,logFC RAB3B,transcript TC0100014191.hg.1,2.825
same,logFC EXTL2,transcript TC0100015079.hg.1,1.8773
same,logFC TXNIP,transcript TC0100015598.hg.1,1.6929
same,logFC TDRKH,transcript TC0100015803.hg.1,1.45
same,logFC CRABP2,transcript TC0100016018.hg.1,2.073
same,logFC TNFSF18,transcript TC0100016427.hg.1,2.171
same,logFC NMNAT2,transcript TC0100016649.hg.1,2.678
same,logFC KCNT2,transcript TC0100016822.hg.1,1.691
same,logFC SUSD4,transcript TC0100017446.hg.1,2.012
same,logFC CHML,transcript TC0100017948.hg.1,2.064
same,logFC EFNA3,transcript TC0100018303.hg.1,2.427
same,logFC CREG1,transcript TC0100018528.hg.1,1.58
same,logFC ATP6V1C2,transcript TC0200006703.hg.1,1.305
same,logFC DPYSL5,transcript TC0200007047.hg.1,2.839
same,logFC CHAC2,transcript TC0200007590.hg.1,1.314
same,logFC MERTK,transcript TC0200008894.hg.1,2.244
same,logFC B3GALT1,transcript TC0200009889.hg.1,2.683
same,logFC FAM171B,transcript TC0200010219.hg.1,2.2716
same,logFC MAP2,transcript TC0200010636.hg.1,3.414
same,logFC BCL11A,transcript TC0200012713.hg.1,2.328
same,logFC PAIP2B,transcript TC0200013021.hg.1,1.841
same,logFC KCNH7,transcript TC0200014775.hg.1,2.8124
same,logFC SCN9A,transcript TC0200014819.hg.1,2.356
same,logFC LRP2,transcript TC0200014851.hg.1,2.542
same,logFC FKBP7,transcript TC0200015082.hg.1,2.583
same,logFC CALCRL,transcript TC0200015193.hg.1,2.705
same,logFC SLC40A1,transcript TC0200015211.hg.1,1.178
same,logFC MSTN,transcript TC0200015221.hg.1,1.434
same,logFC STAT4,transcript TC0200015246.hg.1,1.771
same,logFC EPHA4,transcript TC0200015815.hg.1,1.855
same,logFC ITPR1,transcript TC0300006477.hg.1,1.259
same,logFC GRAMD1C,transcript TC0300008371.hg.1,3.533
same,logFC STXBP5L,transcript TC0300008524.hg.1,1.686
same,logFC TMEM108,transcript TC0300008853.hg.1,1.4353
same,logFC PLS1,transcript TC0300009033.hg.1,1.34
same,logFC MLF1,transcript TC0300009310.hg.1,1.587
same,logFC SERPINI1,transcript TC0300009412.hg.1,3.206
same,logFC GPR160,transcript TC0300009459.hg.1,1.716
same,logFC VGLL3,transcript TC0300011706.hg.1,1.982
same,logFC IGSF11,transcript TC0300012109.hg.1,2.1969
same,logFC SLITRK3,transcript TC0300013022.hg.1,1.701
same,logFC LAMP3,transcript TC0300013336.hg.1,2.279
same,logFC CLDN1,transcript TC0300013520.hg.1,1.599
same,logFC CEP19,transcript TC0300013719.hg.1,1.62
same,logFC IFT80,transcript TC0300014074.hg.1,1.3192
same,logFC CCDC39,transcript TC0300014078.hg.1,2.854
same,logFC WDR19,transcript TC0400007280.hg.1,1.361
same,logFC GABRB1,transcript TC0400007419.hg.1,2.377
same,logFC CYP2U1,transcript TC0400008347.hg.1,1.641
